Experiment [1] concerns three breast cancer (BCa) cell lines. Description: 3DeTME drug screening, relative cell count and GR values. It is filed as cell-based, human. The conditions noted are these: day 7; for response among the BCa cell lines: 3DeTME, 0.1 nM-300 μM. On the procedure:
(§1) Methods: Three breast cancer (BCa) cell lines were previously labeled with DiD and incorporated in 3DeTME. Half a day after plating, cells were treated with a DMSO control (γCtrl) and increasing concentrations 0.1 nM-300 μM of seven standard-of-care chemotherapeutic drugs including Methotrexate (MTX), Paclitaxel (PTX), Capecitabine (CAP), Cyclophosphamide Monohydrate (CYCLO), Carboplatin (CARBO), Epirubicin Hydrochloride (EPI), and Docetaxel (DTX). Treatments were added on top of 3DeTME in order to simulate drug diffusion into a tumor. Treatments were refreshed at day 4 and BCa cells were retrieved from the different cultures for analysis at day 0.5 (γ0) and day 7. Samples were prepared in PBS for flow cytometry by adding counting beads (424902, Biolegend, CA) in addition to SytoxTM green dead cell stain (excitation 504 nm, emission 523 nm) ([…], Thermo Fisher Scientific, MA) for viability to each sample. BCa cells were identified by gating live cells with a DiD+ signal using the FL4 channel on BD AccuriTM C6 instrument (CFlow Software) (BD Biosciences). A minimum of 5×103 events was acquired per sample and BCa cell counts were acquired and data was analyzed using the FlowJoTM v10 (Ashland, Oreg.) software. Relative cell count and Growth rate (GR) values. The GR values show the partial inhibition effect of the drug when it achieves GR values from 0 to 1, with the cytostatic effect being represented when the value is equal to 0 and the cytotoxic effect being represented when it lies between 0 and -1.

In experiment [2] the test system is fibrinogen found naturally in plasma. Description: Cross-linking time of plasma into 3DeTME matrix. Format: biochemical, human. As to the method: (§2) Methods: 3DeTME cultures are formed through the cross-linking of fibrinogen found naturally in plasma. Cross-linking time was assessed by measuring the time necessary to achieve matrix cross-linking using three relevant cross-linkers of the blood coagulation process including Thrombin (0-5 mg/ml), CaCl2 (0-5 mg/ml), and Factor XIII (0-6 mg/ml). The stabilization effects of preventing fibrin degradation and stability improvement in the scaffold was assessed by surveying several chemical antifibrinolytic agents including tranexamic acid (AMCHA) (0-10 mg/ml), Aprotinin ([…]), epsilon-aminocaproic acid (EACA) (0-2.5 mg/ml), and 4-aminomethylbenzoic acid (PAMBA) (0-2.5 mg/ml). The stability of the scaffold was studied by measuring each scaffold weight at day 0 and again measuring scaffold weight at the conclusion of a 3 week time period. 3DeTME culture scaffold structure and morphology was analyzed with scanning electron microscopy (SEM) using a FEI Quanta™ 450 Scanning Electron Microscope at multiple magnifications. The stiffness of the scaffolds was measured by atomic force microscopy (AFM). The Young's modulus was estimated by fitting a modified Hertz model onto the AFM indentation curve using the built in function of AFM software (Asylum Research). Plasma from cancer patients and healthy subjects was analyzed for fibrinogen content through the clotting method of Clauss. The Clauss fibrinogen assay is a quantitative, clot-based, functional assay. The assay measures the ability of fibrinogen to form fibrin clot after being exposed to a high concentration of purified thrombin. Briefly, plasma samples were loaded into the STA-R™ Evolution Expert Series Hemostasis System (Diagnostica Stago Inc., Parsippany, N.J.) and automated testing was carried out by the analyzer. […] 3DeTME culture supernatants were collected and analyzed by a C-Series Custom Cytokine Antibody Array (RayBiotech Inc., Norcross, Ga.) according to the instructions provided by the manufacturer. […] The chemiluminescence signal intensity of each spot was quantified by densitometric analysis (VisionWorks Software). […]

Another experiment has as its system MCF7. Description: 3DeTME drug screening, relative cell count and GR values. It is filed as cell-based, human. The note with it: 0.1 nM-300 μM, day 7.
The test system of experiment [3] is fibrin degradation in the scaffold. Description: 3DeTME scaffold integrity and stability (weight) with antifibrinolytic agents. Further details: species or system human. As to the method: as §2
Experiment [4] concerns CD8+ T cell infiltration (PD-L1 blockade). Description: CD8+ T cell infiltration into 3DeTME matrices seeded with BCa cells. It is filed as cell-based, human. The conditions noted are these: 3DeTME tumorous (1.5% O2); 5 μM for the first 4 days; read at day 7. As to the method: Methods: 3DeTME cultures were grown with cancer cells for 4 days, while being exposed to variable O2 environments (21% and 1.5% O2). Peripheral blood mononuclear cells (PBMCs) were incorporated at day 4 as a cell suspension in the medium added on the top of the matrix, while being exposed to the same O2 environment up to day 7, (FIG. 5A). Oxygen partial pressure (pO2) levels were measured in BCa cell-seeded 3DeTME matrices incubated under variable O2 environments (21% and 1.5% O2) after 0, 2, 4 and 7 days of culture. 3DeTME scaffolds containing BCa cells were profiled along the z-direction with an oxygen microsensor (Needle-Type Oxygen Microsensor NTH-PSt7, PreSens, Regensburg, Germany) and a manual micromanipulator (FIG. 5B). Briefly, to record oxygen pressure, the sensor was introduced into the geometric center (3 measure points) of the 3DeTME and moved from the border between the media and 3DeTME (top) in 10 μm steps towards the bottom of the well plate, as illustrated in FIG. 5C. […]
Methods: Differences in lymphocyte infiltration into 3DeTME scaffolds as a result of different oxygen content were assessed. PBMCs were incorporated as cell suspension in the medium added on the top of the matrix at day 4 and analyzed at day 7. […] Mean absolute numbers of CD3+, CD4+, CD8+ and CD19+ cells (normalized to beads) were determined in each experimental group. […]

The subject of experiment [5] is EpCAM+ BCa cells from patient biopsies. Description: Survival of primary patient BCa cells in matched-plasma 3DeTME cultures. Format: cell-based, human. The conditions noted are these: 7 days. As to the method: Methods: To evaluate the association between different variables, correlation tests were performed using the ggpubr R™ package. The Pearson correlation (r) was assessed in order to measure the linear dependence between two variables after confirmation of a normal distribution of the data. In order to assess the predictive value of the drug response metrics obtained in the 3DeTME assays with cell lines, we compared them with metric data obtained from literature relevant for 2D models (IC50) and other 3D models (IC50), as well as effective concentrations in patients from phase I or II studies that examined the pharmacokinetics of the tested chemotherapies (steady state concentration, Css). A scatterplot correlation graph allowed us to establish the strength, direction and form of the relationship between the in vitro models and the Css clinical data, with Pearson correlation coefficients (r) that were calculated to measure the strength of those relationships. […] Small organoids and single cells cultures were grown and analyzed at days 0.5 (γ0), 3, and 7. […] BCa cell counts were acquired and data was analyzed using FlowJo™ v10 (Ashland, Oreg.). Data was normalized to a predetermined number of counting beads, the proliferation of each condition (fold of γ0) and survival (% of control) was calculated and compared.

The subject of another experiment is MDA-MB-231. The experiment can be described thus: 3DeTME drug screening, relative cell count and GR values. Format: cell-based, human. The note with it: 0.1 nM-300 μM, day 7. On the procedure:
as §1

[6] abbreviates: 5 and 10 mg/ml, weight at day 24 vs day 0.

Description for MCF7: Methods: Three breast cancer (BCa) cell lines were previously labeled with DiD and incorporated in 3DeTME. Half a day after plating, cells were treated with a DMSO control (γCtrl) and increasing concentrations 0.1 nM-300 μM of seven standard-of-care chemotherapeutic drugs including Methotrexate (MTX), Paclitaxel (PTX), Capecitabine (CAP), Cyclophosphamide Monohydrate (CYCLO), Carboplatin (CARBO), Epirubicin Hydrochloride (EPI), and Docetaxel (DTX). Treatments were added on top of 3DeTME in order to simulate drug diffusion into a tumor. Treatments were refreshed at day 4 and BCa cells were retrieved from the different cultures for analysis at day 0.5 (γ0) and day 7. Samples were prepared in PBS for flow cytometry by adding counting beads (424902, Biolegend, CA) in addition to SytoxTM green dead cell stain (excitation 504 nm, emission 523 nm) ([MUT], Thermo Fisher Scientific, MA) for viability to each sample. BCa cells were identified by gating live cells with a DiD+ signal using the FL4 channel on BD AccuriTM C6 instrument (CFlow Software) (BD Biosciences). A minimum of 5×103 events was acquired per sample and BCa cell counts were acquired and data was analyzed using the FlowJoTM v10 (Ashland, Oreg.) software. Relative cell count and Growth rate (GR) values. […]

For the compound `CCCCCOC(=O)Nc1nc(=O)n([C@@H]2O[C@H](C)[C@@H](O)[C@H]2O)cc1F` [capecitabine, Capecitabine], the “type of drug effect (GR value)” value in experiment [1] (over the concentrations tested) is recorded as “cytostatic”.
As for `[Ca+2].[Cl-].[Cl-]` [CaCl2, calcium chloride], in experiment [2] (cross-linker at 1 mg/ml), the “cross-linking time (fastest)” value is reported as 4 min.
On to `CN(Cc1cnc2nc(N)nc(N)c2n1)c1ccc(C(=O)N[C@@H](CCC(=O)O)C(=O)O)cc1` [methotrexate, Methotrexate], for which the “response among the BCa cell lines” value in experiment [1] is “heterogeneous response”. The “sensitivity of the cell line relative to the other BCa cell lines” value with MCF7 is “most resistant”.
In the case of `NCCCCCC(=O)O` [epsilon-aminocaproic acid], the integrity benefit result in experiment [3] (at the concentrations tested (0-2.5 mg/ml), day 24 vs day 0) was “not able to sustain an integrity benefit”.
Turning to “Durvalumab: selective, high-affinity human IgG1 mAb that blocks programmed cell death ligand-1 (PD-L1) binding to PD-1”, the CD8 infiltration result in experiment [4] is given as “did reverse CD8 infiltration”.
Turning to “Factor XIII: cross-linker of the blood coagulation process, required activation by calcium”, the “cross-linking time (fastest)” value in experiment [2] (cross-linker at 6 mg/ml, activated by incorporating calcium) was “over 40 min”.
Consider `CC(C)(C#N)c1cc(Cn2cncn2)cc(C(C)(C)C#N)c1` [Arimidex], for which the activity at 45 µM in experiment [5] (Homo sapiens, 168 h, "responder" patient, read-out: survival of BCa cells (% of control)) is 17%. In experiment [5] (patient with "resistance" clinical outcome, 45 μM), the “survival of BCa cells” value was “little to no effect”.
As for thrombin, the cross-linking time in experiment [2] (cross-linker at 5 mg/ml) worked out at 5 min.
On to `NC[C@H]1CC[C@H](C(=O)O)CC1` [tranexamic acid, trans-4-(aminomethyl)cyclohexanecarboxylic acid], for which, in experiment [3] (setting [6]), the “weight gain as share of total weight” value was “around 10%” and the “weight gain of 3D culture” value was “about 24 mg”.
With `N.N.O=C([O-])C1(C(=O)[O-])CCC1.[Pt+2]` [carboplatin, Carboplatin], the “sensitivity of the cell line relative to the other BCa cell lines” value in the experiment with MDA-MB-231 is on record as “most sensitive”. Also, in experiment [1], the “response among the BCa cell lines” value is on record as “heterogeneous response”.

The values above are taken from patent US20220228124A1, “Three-Dimensional Cross-Linked Scaffolds Of Peripheral Blood Plasma And Their Use” (SANFORD HEALTH, priority 2019, published 2022).
